Reference: patent US4528190A, “GRF Analogs IV” (The Salk Institute For Biological Studies, priority 1984, dated 1985)
Square brackets hold non-standard residues; d marks the D form. Ends that are not written are not given here. Peptide text beside a SMILES is read from it. Nle = CCCC[C@H](N)C(=O)O

What follows are compounds tested on cells of rat pituitary glands (assay: in vitro GH release from cultured rat pituitary cells, compared side by side with synthetic hpGRF(1-40)-OH as standard). Conditions: GH release relative to standard hGRF(1-40)-OH = 100%; equimolar concentrations; incubation 3 to 4 hours; immunoreactive GH by radioimmunoassay.
Format: cell-based
Protocol: To determine the relative effectiveness of certain representative synthetic peptides to promote the release of growth hormone, in vitro assays are carried out using synthetic hpGRF(1-40)-OH as a standard in side-by-side comparison with equimolar concentrations of the representative analogs which have been synthesized. Cultures are used which include cells of rat pituitary glands removed some three to five days previously. Such cultures are considered optimal for the secretion of growth hormone and are used for the comparative testing, in the general manner described in Vale et al. Endocrinology, 91, 562-572 (1972) and as more particularly described in Vale et al. Endocrinology, 112, 1553-1555 (1983). Incubation with the substance to be tested is carried out for 3 to 4 hours, and aliquots of the culture medium are removed and processed to measure their contents in immunoreactive GH(ir GH) by a well-characterized radioimmunoassay.
Compound CCCC[C@H](NC(=O)[C@@H](NC(=O)[C@H](CCC(=O)O)NC(=O)[C@H](Cc1c[nH]cn1)NC(=O)[C@H](CC(C)C)NC(=O)[C@H](CC(C)C)NC(=O)[C@H](CCCCN)NC(=O)[C@H](CCCNC(=N)N)NC(=O)[C@H](C)NC(=O)[C@H](Cc1ccc(O)cc1)NC(=O)[C@H](CC(C)C)NC(=O)[C@H](CCC(N)=O)NC(=O)CNC(=O)[C@@H](CC(C)C)NC(=O)[C@@H](NC(=O)[C@H](CCCNC(=N)N)NC(=O)[C@H](CCCNC(=N)N)NC(=O)[C@H](Cc1ccc(O)cc1)NC(=O)[C@H](CO)NC(=O)[C@H](CO)NC(=O)[C@@H](NC(=O)[C@H](Cc1ccccc1)NC(=O)[C@@H](NC(=O)[C@H](C)NC(=O)[C@H](CC(=O)O)NC(=O)[C@H](C)NC(=O)[C@@H](N)Cc1c[nH]cn1)[C@@H](C)CC)[C@@H](C)O)[C@@H](C)CC)[C@@H](C)CC)C(=O)N[C@@H](CC(N)=O)C(=O)N[C@@H](CCCNC(=N)N)C(N)=O [[D-Leu^14, Nle^27]-rGRF(1-29)-NH2] (H-HADAIFTSSYRRI[dL]GQLYARKLLHEI[Nle]NR-NH2) has a Comparison % of 120%. CCCC[C@H](NC(=O)[C@@H](NC(=O)[C@H](CCC(=O)O)NC(=O)[C@H](Cc1c[nH]cn1)NC(=O)[C@H](CC(C)C)NC(=O)[C@H](CC(C)C)NC(=O)[C@H](CCCCN)NC(=O)[C@H](CCCNC(=N)N)NC(=O)[C@H](C)NC(=O)[C@H](Cc1ccc(O)cc1)NC(=O)[C@H](CC(C)C)NC(=O)[C@H](CCC(N)=O)NC(=O)CNC(=O)[C@H](CC(C)C)NC(=O)[C@@H](NC(=O)[C@H](CCCNC(=N)N)NC(=O)[C@H](CCCNC(=N)N)NC(=O)[C@H](Cc1ccc(O)cc1)NC(=O)[C@H](CO)NC(=O)[C@H](CO)NC(=O)[C@@H](NC(=O)[C@H](Cc1ccccc1)NC(=O)[C@@H](NC(=O)[C@H](C)NC(=O)[C@H](CC(=O)O)NC(=O)[C@H](C)NC(=O)[C@@H](N)Cc1c[nH]cn1)[C@@H](C)CC)[C@@H](C)O)[C@@H](C)CC)[C@@H](C)CC)C(=O)N[C@@H](CC(N)=O)C(=O)N[C@H](CCCNC(=N)N)C(N)=O [[Nle^27, D-Arg^29]-rGRF(1-29)-NH2] (H-HADAIFTSSYRRILGQLYARKLLHEI[Nle]N[dR]-NH2) gave a Comparison % of 386%. Work on “hGRF(1-40)-OH (YADAIFTNSYRKVLGQLSARKLLQDIMSRQQGESNQERGA-OH; UniProt P01286 32-71, looked up, fragment) [synthetic human pancreatic (tumor) GH releasing factor, residues 1-40, free acid; standard for the tests, reference compound]” yielded a Comparison % of 100%.
